Target: T1, CusB (Escherichia coli, UniProt P77239, A236C/A248C)
T1 construct: intein (cleaved yes); made in house; host or cells: E. coli BL21 (DE3)
Test: DEER distance distribution measurements on spin-labeled CusB
Parameters: species or system E. coli
Details: CusB spin labeled (MTSSL) at A236C and A248C; Cu(I):CusB 3:1; Q-band DEER at 50 K; apo-CusB 2.5 ± 0.5 nm, holo-CusB 2.8 ± 0.3 nm
Procedure: Before labeling, 10 mM DTT was added to the protein solution and mixed overnight at 4°C. DTT was dialyzed out using a Microsep Advanced Centrifugal Device (Pall, Port Washington, NY, USA) applied to samples of up to 5 mL in lysis buffer, with a 3-kDa molecular weight cutoff. Next, 0.25 mg of S-(2,2,5,5-tetramethyl-2,5-dihydro-1H-pyrrol-3-yl)methyl methanesulfonothioate (MTSSL, TRC) was dissolved in 15 μL Dimethyl sulfoxide (DMSO) and added to 0.75 ml of 0.01 mM protein solution (20-fold molar excess of MTSSL). The protein solution was then vortexed overnight at 4°C. The free spin label and Cu(I) ions were removed by several dialysis cycles over 4 days. […] The concentration was determined with a Lowry assay. […]
A constant-time four-pulse double electron-electron resonance (DEER) experiment with pulse sequence π/2(νobs)-τ1-π(νobs)-t′−π(νpump)-(τ1 + τ2 − t′)-π(νobs)-τ2(νobs)-τ2-echo was performed at (50 ± 0.5 K) on a Q-band Elexsys E580 equipped with a 2-mm probe head; bandwidth, 220 MHz. […] The echo was measured as a function of t′, and τ2 was kept constant to eliminate relaxation effects. […] The samples were measured in 1.6-mm quartz capillary tubes (Wilmad-Labglass, Vineland, NJ, USA). The data were analyzed with the DeerAnalysis 2016 program and with Tikhonov regularization. […]

## AKIQG [pep8]
  DEER distance distribution of CusB bound to peptide and incubated with Cu(I): around 3.2 nm

Reference: article PMC6936879, “Inhibiting the copper efflux system in microbes as a novel approach for developing antibiotics” (PLoS ONE, 2019)
